IC50 data for 27 compounds are collected here from patent US11325899B2, “Benzofurane and benzothiophene derivatives as PGE2 receptor modulators” (IDORSIA PHARMACEUTICALS LTD, priority 2017, dated 2022).

pIC50: −log10 of the molar value.

The target of one assay is T1, PTGER4 (EP4) (Homo sapiens, UniProt P35408).
T1 construct: host or cells: HEK 293 (PathHunter PTGER4 b-arrestin cell line)
Briefly: hEP4 b-arrestin assay (PathHunter HEK 293 PTGER4 b-arrestin cells). It is filed as cell-based. The following applies: antagonistic activity, beta-arrestin assay; read-out: hEP4 b-arr IC50. The essentials: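 β-Arrestin recruitment to EP4 was read as enzyme-fragment-complementation chemiluminescence in stably transfected HEK 293 cells. After 15 min compound preincubation at 37 °C (ranges 10 μM–2 nM or 1 μM–0.2 nM), cells were stimulated 120 min with PGE2 at 20 nM, its EC80. IC50 values were fitted from duplicates, with repeat measurements averaged.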

In another assay the target is T2, PTGER2 (EP2) (Homo sapiens, UniProt P43116).
T2 construct: host or cells: HEK 293 (PathHunter PTGER2 b-arrestin cell line)
Kind of assay: hEP2 b-arrestin assay (PathHunter HEK 293 PTGER2 b-arrestin cells). Type of assay: cell-based. Conditions: antagonistic activity, beta-arrestin assay; read-out: hEP2 b-arr IC50. The essentials:
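Antagonism measured as inhibition of PGE2-driven β-arrestin 2 recruitment (enzyme fragment complementation, luminescence) in engineered HEK293 EP2 cells. Agonist: 5 μM PGE2, ~EC80, 120 min at 37 °C after 15 min compound preincubation; test range 10 μM-2 nM or 1 μM-0.2 nM, duplicates, IC50 fitted.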

T1 sequence (P35408 whole entry): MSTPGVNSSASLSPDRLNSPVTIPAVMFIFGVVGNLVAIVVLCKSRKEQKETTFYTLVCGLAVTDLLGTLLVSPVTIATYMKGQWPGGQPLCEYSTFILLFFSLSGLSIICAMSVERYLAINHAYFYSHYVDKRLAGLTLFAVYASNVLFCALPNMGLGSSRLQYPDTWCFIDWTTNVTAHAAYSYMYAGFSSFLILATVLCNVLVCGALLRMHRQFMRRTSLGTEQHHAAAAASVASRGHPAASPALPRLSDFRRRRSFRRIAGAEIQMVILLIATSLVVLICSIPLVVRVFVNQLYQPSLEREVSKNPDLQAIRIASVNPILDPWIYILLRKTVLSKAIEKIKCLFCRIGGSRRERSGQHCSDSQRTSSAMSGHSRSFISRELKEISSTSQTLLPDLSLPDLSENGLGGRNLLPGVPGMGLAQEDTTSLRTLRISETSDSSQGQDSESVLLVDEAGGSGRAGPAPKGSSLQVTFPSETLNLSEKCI
T2 sequence (P43116 whole entry): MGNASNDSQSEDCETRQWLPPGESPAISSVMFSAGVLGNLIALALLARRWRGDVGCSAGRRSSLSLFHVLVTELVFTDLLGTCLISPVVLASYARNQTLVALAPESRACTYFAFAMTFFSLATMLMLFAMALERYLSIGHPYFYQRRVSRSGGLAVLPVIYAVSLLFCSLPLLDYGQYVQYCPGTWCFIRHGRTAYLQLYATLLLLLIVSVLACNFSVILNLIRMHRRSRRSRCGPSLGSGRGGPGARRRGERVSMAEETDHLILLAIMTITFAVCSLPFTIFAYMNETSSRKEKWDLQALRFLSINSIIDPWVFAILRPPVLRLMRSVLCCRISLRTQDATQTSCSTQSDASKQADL

The term pIC50 denotes the negative decadic logarithm of the IC50, by convention in mol/L. For `CCOc1cc(-c2cc(NCCc3c(C)oc4c(OC)ccc(F)c34)ncn2)sc1C(=O)O` [Example 34, 3-Ethoxy-5-{6-[2-(4-fluoro-7-methoxy-2-methyl-benzofuran-3-yl)-ethylamino]-pyrimidin-4-yl}-thiophene-2-carboxylic acid], the pIC50 on PTGER4 (EP4) is 7.92; on PTGER2 (EP2), 8.22.
The matching figures for `CCOc1cc(-c2cc(NCCc3c(C)oc4c(Cl)cccc34)ncn2)sc1C(=O)O` [Example 35, 5-{6-[2-(7-Chloro-2-methyl-benzofuran-3-yl)-ethylamino]-pyrimidin-4-yl}-3-ethoxy-thiophene-2-carboxylic acid]: 7.46 and 8.52.
The matching figures for `CCOc1cc(-c2cc(NCCc3c(C)sc4c(C)cccc34)ncn2)sc1C(=O)O` [Example 36, 5-{6-[2-(2,7-Dimethyl-benzo[b]thiophen-3-yl)-ethylamino]-pyrimidin-4-yl}-3-ethoxy-thiophene-2-carboxylic acid]: 7.59 and 9.00.
As to `CCOc1cc(-c2cc(NCCc3c(C)oc4c(C)cc(F)cc34)ncn2)sc1C(=O)O` [Example 37, 3-Ethoxy-5-{6-[2-(5-fluoro-2,7-dimethyl-benzofuran-3-yl)-ethylamino]-pyrimidin-4-yl}-thiophene-2-carboxylic acid], the pIC50 is 7.38 at PTGER4 (EP4) and 8.70 on PTGER2 (EP2).
In the case of `CCOc1cc(-c2cc(NCCc3c(C)oc4c(OC)cc(Cl)cc34)ncn2)sc1C(=O)O` [Example 38, 5-{6-[2-(5-Chloro-7-methoxy-2-methyl-benzofuran-3-yl)-ethylamino]-pyrimidin-4-yl}-3-ethoxy-thiophene-2-carboxylic acid], the figures for the pIC50 on PTGER4 (EP4) and at PTGER2 (EP2) were 7.92 and 8.05, respectively.
As to `CCOc1cc(-c2cc(NCCc3c(CC)oc4c(C)cc(F)cc34)ncn2)sc1C(=O)O` [Example 39, 3-Ethoxy-5-{6-[2-(2-ethyl-5-fluoro-7-methyl-benzofuran-3-yl)-ethylamino]-pyrimidin-4-yl}-thiophene-2-carboxylic acid], the pIC50 at PTGER4 (EP4) was 7.30; on PTGER2 (EP2), 7.51.
Taken in the same sequence, the figures for `COc1cc(-c2cc(NCCc3c(C)sc4c(OC)ccc(Cl)c34)ncn2)ccc1C(=O)O` [Example 40, 4-{6-[2-(4-Chloro-7-methoxy-2-methyl-benzo[b]thiophen-3-yl)-ethylamino]-pyrimidin-4-yl}-2-methoxy-benzoic acid] were 6.17 and 7.32.
On to `CCSc1cc(-c2cc(NCCc3c(C)sc4c(C)cccc34)ncn2)ccc1C(=O)O` [Example 42, 4-{6-[2-(2,7-Dimethyl-benzo[b]thiophen-3-yl)-ethylamino]-pyrimidin-4-yl}-2-ethylsulfanyl-benzoic acid], for which the values for the pIC50 on PTGER4 (EP4) and on PTGER2 (EP2) were 6.48 and 8.40, respectively.
For the compound `CCSc1cc(-c2cc(NCCc3c(C)sc4ccccc34)ncn2)ccc1C(=O)O` [Example 43, 2-Ethylsulfanyl-4-{6-[2-(2-methyl-benzo[b]thiophen-3-yl)-ethylamino]-pyrimidin-4-yl}-benzoic acid], the pIC50 was 5.97 at PTGER4 (EP4) and 8.52 at PTGER2 (EP2).
As for `CCSc1cc(-c2cc(NCCc3c(C)oc4ccccc34)ncn2)ccc1C(=O)O` [Example 44, 2-Ethylsulfanyl-4-{6-[2-(2-methyl-benzofuran-3-yl)-ethylamino]-pyrimidin-4-yl}-benzoic acid], the pIC50 at PTGER4 (EP4) was 5.99; on PTGER2 (EP2), 9.00.
The matching figures for `CCCc1cc(-c2cc(NCCc3c(C)sc4c(C)cc(F)cc34)ncn2)ccc1C(=O)O` [Example 45, 4-{6-[2-(5-Fluoro-2,7-dimethyl-benzo[b]thiophen-3-yl)-ethylamino]-pyrimidin-4-yl}-2-propyl-benzoic acid]: 7.24 and 7.70.
The matching figures for `Cc1sc2c(C)cc(F)cc2c1CCNc1cc(-c2cc(C(F)(F)F)c(C(=O)O)s2)ncn1` [Example 46, 5-{6-[2-(5-Fluoro-2,7-dimethyl-benzo[b]thiophen-3-yl)-ethylamino]-pyrimidin-4-yl}-3-trifluoromethyl-thiophene-2-carboxylic acid]: 7.03 and 7.34.
As to `CSc1cc(-c2cc(NCCc3c(C)sc4c(C)cccc34)ncn2)cc(F)c1C(=O)O` [Example 47, 4-{6-[2-(2,7-Dimethyl-benzo[b]thiophen-3-yl)-ethylamino]-pyrimidin-4-yl}-2-fluoro-6-methylsulfanyl-benzoic acid], the values for the negative-log IC50 (pIC50) at PTGER4 (EP4) and at PTGER2 (EP2) were 6.09 and 8.00, respectively.
As for `CSc1cc(-c2cc(NCCc3c(C)sc4c(C)cccc34)ncn2)cc(Cl)c1C(=O)O` [Example 50, 2-Chloro-4-{6-[2-(2,7-dimethyl-benzo[b]thiophen-3-yl)-ethylamino]-pyrimidin-4-yl}-6-methylsulfanyl-benzoic acid], the pIC50 at PTGER4 (EP4) was 6.36; on PTGER2 (EP2) it was 7.74.
In the case of `CCOc1cc(-c2cc(NCCc3c(C)sc4c(C)cc(F)cc34)ncn2)sc1CC(=O)O` [Example 52, (3-Ethoxy-5-{6-[2-(5-fluoro-2,7-dimethyl-benzo[b]thiophen-3-yl)-ethylamino]-pyrimidin-4-yl}-thiophen-2-yl)-acetic acid], the negative-log IC50 (pIC50) was 6.88 at PTGER4 (EP4) and 7.34 at PTGER2 (EP2).
Taken in the same sequence, the figures for `CCOc1cc(-c2cc(NCCc3c(C#N)sc4c(C)cc(F)cc34)ncn2)ccc1C(=O)O` [Example 53, 4-{6-[2-(2-Cyano-5-fluoro-7-methyl-benzo[b]thiophen-3-yl)-ethylamino]-pyrimidin-4-yl}-2-ethoxy-benzoic acid] were 7.47 and 8.05.
Taken in the same sequence, the figures for `CCOc1cc(-c2cc(NCCc3c(C#N)sc4c(OC)cccc34)ncn2)ccc1C(=O)O` [Example 54, 4-{6-[2-(2-Cyano-7-methoxy-benzo[b]thiophen-3-yl)-ethylamino]-pyrimidin-4-yl}-2-ethoxy-benzoic acid] were 7.22 and 6.71.
As for `CCOc1cc(-c2cc(NCCc3c(C)sc4c(OC)ccc(F)c34)ncn2)ccc1C(=O)O` [Example 55, 2-Ethoxy-4-{6-[2-(4-fluoro-7-methoxy-2-methyl-benzo[b]thiophen-3-yl)-ethylamino]-pyrimidin-4-yl}-benzoic acid], the values for the pIC50 at PTGER4 (EP4) and on PTGER2 (EP2) were 6.93 and 7.82, respectively.
Taken in the same sequence, the figures for `CCOc1cc(-c2cc(NCCc3c(C)sc4c(C)cc(F)cc34)ncn2)ccc1C(=O)O` [Example 56, 2-Ethoxy-4-{6-[2-(5-fluoro-2,7-dimethyl-benzo[b]thiophen-3-yl)-ethylamino]-pyrimidin-4-yl}-benzoic acid] were 7.33 and 7.89.
With `CCOc1cc(-c2cc(NCCc3c(C)sc4c(OC)ccc(Cl)c34)ncn2)ccc1C(=O)O` [Example 57, 4-{6-[2-(4-Chloro-7-methoxy-2-methyl-benzo[b]thiophen-3-yl)-ethylamino]-pyrimidin-4-yl}-2-ethoxy-benzoic acid], the figures for the pIC50 at PTGER4 (EP4) and on PTGER2 (EP2) were 6.54 and 7.77, respectively.
In the case of `CCOc1cc(-c2cc(NCCc3c(Br)sc4c(C)cc(F)cc34)ncn2)ccc1C(=O)O` [Example 58, 4-{6-[2-(2-Bromo-5-fluoro-7-methyl-benzo[b]thiophen-3-yl)-ethylamino]-pyrimidin-4-yl}-2-ethoxy-benzoic acid], the values for the negative logarithm of the IC50 (pIC50) at PTGER4 (EP4) and on PTGER2 (EP2) were 6.34 and 7.92, respectively.
For the compound `CCOc1cc(-c2cc(NCCc3c(Cl)sc4c(C)cc(F)cc34)ncn2)ccc1C(=O)O` [Example 59, 4-{6-[2-(2-Chloro-5-fluoro-7-methyl-benzo[b]thiophen-3-yl)-ethylamino]-pyrimidin-4-yl}-2-ethoxy-benzoic acid], the figures for the negative-log IC50 (pIC50) on PTGER4 (EP4) and on PTGER2 (EP2) were 6.20 and 7.82, respectively.
On to `CCOc1cc(-c2cc(NCCc3c(C)sc4c(C)cccc34)ncn2)ccc1C(=O)O` [Example 60, 4-{6-[2-(2,7-Dimethyl-benzo[b]thiophen-3-yl)-ethylamino]-pyrimidin-4-yl}-2-ethoxy-benzoic acid], for which the figures for the pIC50 at PTGER4 (EP4) and on PTGER2 (EP2) were 6.43 and 8.15, respectively.
Consider `CCOc1cc(-c2cc(NCCc3c(C)sc4c(C)ccc(F)c34)ncn2)ccc1C(=O)O` [Example 61, 2-Ethoxy-4-{6-[2-(4-fluoro-2,7-dimethyl-benzo[b]thiophen-3-yl)-ethylamino]-pyrimidin-4-yl}-benzoic acid], for which the pIC50 on PTGER4 (EP4) was 6.61; on PTGER2 (EP2), 7.66.
Take `CCOc1cc(-c2cc(NCCc3c(C)sc4c(C)c(F)ccc34)ncn2)ccc1C(=O)O` [Example 62, 2-Ethoxy-4-{6-[2-(6-fluoro-2,7-dimethyl-benzo[b]thiophen-3-yl)-ethylamino]-pyrimidin-4-yl}-benzoic acid]: the results for the pIC50 at PTGER4 (EP4) and at PTGER2 (EP2) were 6.30 and 7.92, respectively.
Regarding `CCOc1cc(-c2cc(NCCc3c(C)sc4c(Cl)ccc(Cl)c34)ncn2)ccc1C(=O)O` [Example 63, 4-{6-[2-(4,7-Dichloro-2-methyl-benzo[b]thiophen-3-yl)-ethylamino]-pyrimidin-4-yl}-2-ethoxy-benzoic acid], the pIC50 is 6.34 at PTGER4 (EP4) and 7.57 on PTGER2 (EP2).
With `CCOc1cc(-c2cc(NCCc3c(C)oc4c(C)cc(Cl)cc34)ncn2)ccc1C(=O)O` [Example 64, 4-{6-[2-(5-Chloro-2,7-dimethyl-benzofuran-3-yl)-ethylamino]-pyrimidin-4-yl}-2-ethoxy-benzoic acid], the pIC50 at PTGER4 (EP4) is 6.28; at PTGER2 (EP2), 7.96.
